Measured values reported in patent publication US5670492A, “DC-89 derivatives” (priority 1994, dated 1997).
In brackets after ≈: the same amount, converted by molar mass. Like-named read-outs stand apart in the source and are kept apart here.

Assays:
[1] = tested on: HeLaS3 cells; experiment: Growth Inhibitory Effect Against HeLaS3 cells; format: cell-based; conditions: Homo sapiens
Description: HeLaS3 cells were suspended in MEM medium containing 10% calf serum and 2 mM glutamine to a concentration of 2.67×10^4 cells/mi. The cell suspension thus prepared was put into wells of a 24-well culture plate in an amount of 0.75 ml per well. After the cells were incubated in a CO2 incubator overnight at 37° C., Compound (I) which had been appropriately diluted with a culture medium was added to each well in an amount of 0.25 ml.
The cells were further incubated in the CO2 incubator for 72 hours, and the culture supernatant was removed. Then, the cells were dispersed in a solution of trypsin and EDTA and recovered. The number of cells was counted using a cell counter. The concentration (IC50) of Compound (I) at which the growth of the cells is inhibited by 50% was calculated by comparing the number of untreated cells with the number of the cells treated with Compound (I) at known concentrations.

[2] = Test for Solubility in Water; format: physicochemical; conditions: room temperature
Description: A sample tube was charged with 0.7 mg of Compound (I), and 30 μl of water were added thereto at room temperature. The mixture was stirred, and the solubility in water was measured. When the compound was not dissolved, 30 μl of water was added thereto successively, and the mixture was stirred. The solubility in water was measured when the compound was dissolved.

[3] = tested on: Sarcoma 180 tumor; experiment: Therapeutic Effect Against Sarcoma 180 Tumor; format: in vivo, male ddY-strain mice; conditions: Mus musculus, Sarcoma-180, iv, 168 h, read-out: T/C
Description: Five male ddY-strain mice each weighing 18-20 g were used for each group as test animals, and 5×10^5 Sarcoma 180 tumor cells were implanted at the axilla subcutaneously. One day after the implantation, 0.2 ml of a physiological saline containing Compound (I) at the concentration shown in Table 2 was intravenously administered to each mouse. T/C [T: average tumor volume (mm^3) of the group treated with the test compound, C: average tumor volume (mm^3) of the control group (to which […] of a physiological saline was intravenously administered)] was determined seven days after the implantation.

[4] = HeLa S3, 72 hours, read-out: IC50
[5] = 1.0 mg/kg, single i.v. one day after s.c. implantation, tumor volume ratio seven days after implantation

Question: Which IC50 [1, 4] does the source give for `COC(=O)c1c(C)[nH]c2c1C13CC1CN(C(=O)/C=C/c1ccc(OC)nc1)C3=CC2=O` (stereo not shown) [Compound 1] here?
Answer: 0.42 nM

Question: With `COC(=O)c1c(C)[nH]c2c1C13CC1CN(C(=O)/C=C/c1cnc(OC)nc1)C3=CC2=O` (stereo not shown) [Compound 6] as the compound, how does the IC50 [1, 4] read?
Answer: 0.9 nM

Question: For `COC(=O)c1c(C)[nH]c2c1C13CC1CN(C(=O)/C=C/c1ccc(OC)nn1)C3=CC2=O` (stereo not shown) [Compound 12], which IC50 [1, 4] is on record?
Answer: 0.28 nM

Question: For `COC(=O)c1c(C)[nH]c2c(OC(=O)N3CCN(C)CC3)cc3c(c12)C(CBr)CN3C(=O)/C=C/c1ccc(OC)cn1` (stereo not shown) [Compound 17], which solubility [2] is on record?
Answer: > 20 mg/mL

Question: Which IC50 [1, 4] does the source give for `COC(=O)c1c(C)[nH]c2c1C13CC1CN(C(=O)COc1ccc(OC)cc1)C3=CC2=O` (stereo not shown) [Compound 18] here?
Answer: 0.19 nM

Question: With `COC(=O)c1c(C)[nH]c2c1C13CC1CN(C(=O)COc1ccc(OC(F)(F)F)cc1)C3=CC2=O` (stereo not shown) [Compound 23] as the compound, how does the IC50 [1, 4] read?
Answer: 1.6 nM

Question: Which IC50 [1, 4] does the source give for `COC(=O)c1c(C)[nH]c2c1C13CC1CN(C(=O)/C=C/c1ccc(NC(=O)OC(C)(C)C)cc1)C3=CC2=O` (stereo not shown) [Compound 26] here?
Answer: 0.56 nM

Question: Which IC50 [1, 4] does the source give for `COC(=O)c1c(C)[nH]c2c1C13CC1CN(C(=O)/C=C/c1ccc(N(C)C)cc1)C3=CC2=O` (stereo not shown) [Compound 27] here?
Answer: 1.6 nM

Question: For `COC(=O)c1c(C)[nH]c2c1C13CC1CN(C(=O)/C=C/c1ccc(N)cc1)C3=CC2=O` (stereo not shown) [Compound 28], which IC50 [1, 4] is on record?
Answer: 2.6 nM

Question: For `COC(=O)c1c(C)[nH]c2c1C13CC1CN(C(=O)/C=C/c1ccc(OC)c(OCCCN)c1)C3=CC2=O` (stereo not shown) [Compound 30], which IC50 [1, 4] is on record?
Answer: 1.4 nM

Question: With `COC(=O)c1c(C)[nH]c2c(OC(=O)N3CCN(C)CC3)cc3c(c12)C(CBr)CN3C(=O)/C=C/c1ccc(OC)c(OCCCN)c1` (stereo not shown) [Compound 32] as the compound, how does the solubility [2] read?
Answer: > 20 mg/mL

Question: For `COC(=O)COc1cc(/C=C/C(=O)N2CC3CC34C2=CC(=O)c2[nH]c(C)c(C(=O)OC)c24)ccc1OC` (stereo not shown) [Compound 34], which IC50 [1, 4] is on record?
Answer: 0.86 nM

Question: For `COC(=O)c1c(C)[nH]c2c1C13CC1CN(C(=O)/C=C/c1ccc(OC)c(N)c1)C3=CC2=O` (stereo not shown) [Compound 37], which IC50 [1, 4] is on record?
Answer: 0.53 nM

Question: With `COC(=O)Oc1cc2c(c3c(C(=O)OC)c(C)[nH]c13)C(CBr)CN2C(=O)/C=C/c1ccc(OC)c(N)c1` (stereo not shown) [Compound 38] as the compound, how does the IC50 [1, 4] read?
Answer: 0.67 nM

Question: For `COC(=O)c1c(C)[nH]c2c(OC(=O)N3CCN(C)CC3)cc3c(c12)C(CBr)CN3C(=O)/C=C/c1ccc(OC)c(N)c1` (stereo not shown) [Compound 40], which solubility [2] is on record?
Answer: > 20 mg/mL

Question: Which IC50 [1, 4] does the source give for `COC(=O)c1c(C)[nH]c2c1C13CC1CN(C(=O)/C=C/c1ccc(OC)c(N(C)C)c1)C3=CC2=O` (stereo not shown) [Compound 41] here?
Answer: 0.92 nM

Question: Which solubility [2] does the source give for `COC(=O)c1c(C)[nH]c2c(OC(=O)c3nccnc3N)cc3c(c12)C(CBr)CN3C(=O)/C=C/c1ccc(OC)c(N(C)C)c1` (stereo not shown) [Compound 58] here?
Answer: > 20 mg/mL

Question: With `COC(=O)c1c(C)[nH]c2c(OC(=O)NN3CCN(C)CC3)cc3c(c12)C(CBr)CN3C(=O)/C=C/c1cnc(OC)nc1` (stereo not shown) [Compound 71] as the compound, how does the IC50 ([1]; HeLa S3, 72 h) read?
Answer: 1.5 nM

Question: What about the response vs control in vivo at 2 mg/kg [3] of the same compound?
Answer: 30%

Question: And the solubility [2]?
Answer: > 10 mg/mL

Question: Which results are given for `COC(=O)c1c(C)[nH]c2c(OC(=O)CSCC(=O)O)cc3c(c12)C(CBr)CN3C(=O)/C=C/c1cnc(OC)nc1` (stereo not shown) [Compound 73]?
Answer: IC50 [1, 4]: 1.2 nM; response vs control in vivo at 1 mg/kg [3, 5]: 36%; solubility [2]: < 0.1 mg/mL

Question: Which results are given for `COC(=O)c1c(C)[nH]c2c(OC(=O)N(C)N)cc3c(c12)C(CBr)CN3C(=O)/C=C/c1cnc(OC)nc1` (stereo not shown) [Compound 74]?
Answer: IC50 ([1]; HeLa S3, 72 h): 2.4 nM; response vs control in vivo at 1 mg/kg [3]: 37%

Question: Which IC50 [1, 4] does the source give for `COC(=O)c1c(C)[nH]c2c(OC(=O)c3ccc(CN4CCN(C)CC4)cc3)cc3c(c12)C(CBr)CN3C(=O)/C=C/c1cnc(OC)nc1` (stereo not shown) [Compound 76] here?
Answer: 1.3 nM

Question: And the response vs control in vivo at 1 mg/kg [3, 5]?
Answer: 25%

Question: What about the solubility [2] of the same compound?
Answer: > 10 mg/mL

Question: Which IC50 [1, 4] does the source give for `COC(=O)c1c(C)[nH]c2c(O)cc3c(c12)C(CCl)CN3C(=O)/C=C/c1ccc(OC)c(N(C)C)c1` (stereo not shown) [Compound 80] here?
Answer: 0.44 nM

Question: And the solubility [2]?
Answer: > 15 mg/mL

Question: Which IC50 [1, 4] does the source give for `COC(=O)c1c(C)[nH]c2c(O)cc3c(c12)C(CBr)CN3C(=O)/C=C/c1ccc(OC)c(N(C)C)c1` (stereo not shown) [Compound 81] here?
Answer: 0.5 nM

Question: And the solubility [2]?
Answer: 2.5 mg/mL (≈ 4.61 mM)

Question: With `COC(=O)c1c(C)[nH]c2c(OC(=O)CN3CCC(N4CCCCC4)CC3)cc3c(c12)C(CBr)CN3C(=O)/C=C/c1ccc(OC)c(N(C)C)c1` (stereo not shown) [Compound 83] as the compound, how does the IC50 [1, 4] read?
Answer: 0.59 nM

Question: And the solubility [2]?
Answer: > 20 mg/mL
